Laboratory results as given in US11129389B2, “Gluten-free grain-concentrate substitute for fermented wheat germ food product and method of preparation” (priority 2013, dated 2021).

Assay: In vivo experiments: activity level after removal of a component
Conditions: named component removed from product
Text: The basis for the disclosure that 2-6 methoxy substituted benzoquinones is not an active component of the present invention is vivo experiments.

| Molecule | activity level of the present invention when the component was removed |
| --- | --- |
| COc1cc(O)cc(OC)c1O [a, 2,6-dimethoxy-1,4-hydroquinone] | decreased |
| COC1=CC(=O)C=CC1=O [b, monomethoxy-1,4-benzoquinone] | decreased |
| COc1cc(O)ccc1O [c, monomethoxy-1,4-hydroquinone] | decreased |
| 2-6 methoxy substituted benzoquinones | remained unchanged |
